Results on 6 compounds are retold here after publication PMC11031590, “Narazaciclib, a novel multi-kinase inhibitor with potent activity against CSF1R, FLT3 and CDK6, shows strong anti-AML activity in defined preclinical models” (Scientific Reports, 2024).

In general, IC50 refers to the concentration that gives 50% inhibition.

Experiment [1] has as its system Ba/F3-RBM6-CSF1R cell line. Kind of experiment: Ba/F3-RBM6-CSF1R proliferation assay (CTG). Particulars: not requiring CSF1. It counts as cell-based, mouse. The procedure:
(§1) The recombinant Ba/F3 cell lines overexpressing human CSF1R, or human RBM6-CSF1R, or human ETV6-CSF1R were generated using a retrovirus vector (Kyinno Co., Ltd. Beijing). The recombinant Ba/F3 lines overexpressing human Kras G12C orEGFR-L718Q mutants, and different mutant variants of FLT3 were also similarly created as well. A standard proliferation assay via CTG readout was performed according to the vendor’s instructions (KYinno Biotechnology Co., Ltd. Beijing).

Experiment [2] relates to Ba/F3-CSF1R cell line. Kind of experiment: Ba/F3-CSF1R proliferation assay (CTG). Particulars: + 100 ng/ml CSF-1. Type of experiment: cell-based, mouse. The procedure: as §1
For experiment [3], the system named is MV-4-11 subcutaneous xenograft. Kind of experiment: MV-4-11 subcutaneous xenograft model. It counts as in vivo, NOD/scid mice. Particulars: Azacitidine 3 mg/kg intraperitoneally twice per week for 3 weeks. The source says:
The subcutaneous cell line xenograft (CDX) models and systemic patient-derived xenograft (PDX) models of AML have been extensively described before. For the subcutaneous MV-4-11 CDX model, 5 × 10^6 MV-4-11 tumor cells harvested from exponential growth phase were mixed with Matrigel (1:1) and then inoculated into the right front flank region of 6- to 7-week-old female NOD/scid mice for tumor development. MV-4-11 tumor-bearing mice were randomized into 5 groups (N = 8) when their tumor volume reached approximately 100 mm^3 and received their designated treatments following randomization. Narazaciclib was administrated intraperitoneally at 100 mg/kg twice per week for 3 weeks, while Azacitidine was administrated intraperitoneally at 3 mg/kg twice per week for 3 weeks. For the subcutaneous Ba/F3-ETV6-CSF1R CDX model, 1 × 10^6 Ba/F3-ETV6-CSF1R tumor cells harvested from exponential growth phase were mixed with Matrigel (1:1) and then inoculated into the right front flank region of 6- to 8-week-old female NOD/scid mice for tumor development. Ba/F3-ETV6-CSF1R tumor-bearing mice were randomized into 5 groups (N = 6) when their tumor volume reached approximately 100 mm^3 and received their designated treatments following randomization. […] Tumor volume and body weight were measured at different time points and tumor growth inhibition (TGI) was used as index to determine the therapeutic efficacy.

Experiment [4] deals with MV-4-11 subcutaneous xenograft. Conditions: prior knowledge; cited from earlier work.
For experiment [5], the system named is AM8096 AML-PDX. The experiment is described as follows: AM8096 systemic AML-PDX model. Type of experiment: in vivo, NOD/scid mice. Conditions: AM8096, quizartinib. On the procedure: For systemic AML-PDX models, the model establishment and narazaciclib pharmacology experiment were performed essentially as described previously. Briefly, 2 × 10^6 AM7407 cells, or 2 × 10^6 AM7577 cells, or 2 × 10^6 AM5512 cells, or 1.65 × 10^6 AM8096 cells were inoculated intravenously into 4- to 5-week-old female NOD/scid mice for AML development. Engraftment was confirmed by the presence of circulating human CD45+ cells (anti-human CD45 antibody, Cat. 304038, Biolegend) in peripheral blood. Mice with successful engraftment of AML-PDX were randomized into different treatment groups (N = 6) and received their designated treatments. Narazaciclib was administrated orally or intraperitoneally at 10 mg/kg, or 30 mg/kg, or 100 mg/kg every day throughout the study, while Cytarabine was administrated intraperitoneally at 3 mg/kg every day. Following the initiation of designated treatments, leukemic burden was monitored by flow cytometry with anti-human CD45 antibody on the peripheral blood every week as well as on the peripheral blood, bone marrow cells and splenocytes of mice at sacrifice. Mice were sacrifice once the followings are observed: body weight loss over 20%, reduced motility and activity, labored breathing, ruffled coat, hunched back and severe dehydration.

Take `FC(F)(F)c1ccc(CNc2ccc(Cc3c[nH]c4ncc(Cl)cc34)cn2)cn1` [Pexidartinib, pexidartinib, reference compound]: the results for the IC50 in experiment [1] (Mus musculus) and in experiment [2] (Mus musculus) were 147 nM and about 3.88 nM, respectively.
In the case of `Nc1ncn([C@@H]2O[C@H](CO)[C@@H](O)[C@H]2O)c(=O)n1` [Azacitidine, reference compound], in experiment [3], the “anti-AML effect (tumor growth)” value was “little anti-AML effect”.
`CNC(=O)c1cc(Oc2ccc(NC(=O)Nc3ccc(Cl)c(C(F)(F)F)c3)cc2)ccn1` [sorafenib]: the “response of MV-4-11 to FLT3i” value in experiment [4] is “responded”.
On to `CCc1nc(C(N)=O)c(Nc2ccc(N3CCC(N4CCN(C)CC4)CC3)c(OC)c2)nc1NC1CCOCC1` [gilteritinib], for which the “response of MV-4-11 to FLT3i” value in experiment [4] is listed as “responded”.
For `CC(C)(C)c1cc(NC(=O)Nc2ccc(-c3cn4c(n3)sc3cc(OCCN5CCOCC5)ccc34)cc2)no1` [quizartinib, reference compound], in experiment [5], the response of model entry was “responded poorly”. The “response of MV-4-11 to FLT3i” value in experiment [4] is recorded as “responded”.
As to `COc1ccc(COc2ccc(Cc3cnc(N)nc3N)cc2OC)cc1` [GW2580, reference compound], the IC50 in experiment [1] is 344 nM; in experiment [2], 59.5 nM.
